Marks after values point to notes of the source that are not given here.
How the values were obtained:
Phytophthora infestans = format: in vivo; conditions: young tomato plants sprayed, active ingredient concentration of 100 (unit not given); inoculated 1 day after treatment; evaluation 7 days after inoculation; 100% = no infection
[1] = LC-MS determination in the acidic range, pH 2.7, 0.1% aqueous formic acid and acetonitrile
Plasmopara viticola = experiment: Plasmopara test (grapevine) / protective; format: in vivo; conditions: young grapevine plants sprayed, active ingredient concentration 10 ppm; evaluation 6 days after inoculation; 100% = no infection
Procedure: Plasmopara Test (Grapevine)/Protective
To produce an appropriate active ingredient formulation, 1 part by weight of active ingredient is mixed with the specified amounts of solvent and emulsifier, and the concentrate is diluted with water to the desired concentration.
To test for protective efficacy, young plants are sprayed with the active ingredient formulation at the stated application rate. After the spray coating has dried on, the plants are inoculated with an aqueous spore suspension of Plasmopara viticola and then remain in an incubation cabin at approx. 20° C. and 100% relative air humidity for 1 day. Subsequently, the plants are placed in a greenhouse at approx. 21° C. and approx. 90% air humidity for 4 days. The plants are then moistened and placed in an incubation cabin for 1 day.
Evaluation follows 6 days after the inoculation. 0% means an efficacy which corresponds to that of the control, whereas an efficacy of 100% means that no infection is observed.
In this test, the following inventive compounds show, at an active ingredient concentration of 10 ppm, an efficacy of 70% or more: […]

CON=Cc1ccccc1OCC1CC(c2csc(C3CCN(C(=O)Cn4nc(C(F)F)cc4C(F)F)CC3)n2)=NO1 (mixture of isomers) [I-60]
% eff. (Phytophthora infestans): 94% | Log P [a] [1]: 3.39^[a]; 3.39^[b]

O=C(Cn1nc(C(F)F)cc1C(F)F)N1CCC(c2nc(C3=NOC(COc4ccccc4C=NO)C3)cs2)CC1 (mixture of isomers) [I-64]
% eff. (Phytophthora infestans): 95% | Log P [a] [1]: 2.62 | % eff. (Plasmopara viticola): 73%

O=C(Cn1nc(C(F)F)cc1C(F)F)N1CCC(c2nc(C3=NOC(COc4c(Cl)cccc4Cl)C3)cs2)CC1 (stereo not drawn) [I-1]
% eff. (Phytophthora infestans): 100% | Log P [a] [1]: 3.7 | % eff. (Plasmopara viticola): 100%

CC(C)(c1ccccc1)C1CC(c2csc(C3CCN(C(=O)Cn4nc(C(F)F)cc4C(F)F)CC3)n2)=NO1 (stereo not drawn) [I-4]
% eff. (Phytophthora infestans): 100% | Log P [a] [1]: 3.79^[a] | % eff. (Plasmopara viticola): 97%

O=C(Cn1nc(C(F)F)cc1C(F)F)N1CCC(c2nc(C3=NOC(C(F)c4ccccc4)C3)cs2)CC1 (stereo not drawn) [I-5]
% eff. (Phytophthora infestans): 100% | Log P [a] [1]: 3.23^[a] | % eff. (Plasmopara viticola): 100%

O=C(CCC1CC(c2csc(C3CCN(C(=O)Cn4nc(C(F)F)cc4C(F)F)CC3)n2)=NO1)c1ccccc1 (stereo not drawn) [I-6]
% eff. (Phytophthora infestans): 100% | Log P [a] [1]: 3.16 | % eff. (Plasmopara viticola): 96%

O=C(Cn1nc(C(F)F)cc1C(F)F)N1CCC(c2nc(C3=NOC(CS(=O)(=O)c4ccccc4)C3)cs2)CC1 (stereo not drawn) [I-7]
% eff. (Phytophthora infestans): 100% | Log P [a] [1]: 2.65^[a]; 2.65^[b] | % eff. (Plasmopara viticola): 96%

O=C(Cn1nc(C(F)F)cc1C(F)F)N1CCC(c2nc(C3=NOC(C(O)c4ccccc4)C3)cs2)CC1 (stereo not drawn) [I-8]
% eff. (Phytophthora infestans): 100% | Log P [a] [1]: 2.53^[a] | % eff. (Plasmopara viticola): 93%

O=C(Cn1nc(C(F)F)cc1C(F)F)N1CCC(c2nc(C3=NOC(CSc4ccccc4)C3)cs2)CC1 (stereo not drawn) [I-10]
% eff. (Phytophthora infestans): 100% | Log P [a] [1]: 3.46 | % eff. (Plasmopara viticola): 93%

CC(C)(c1ccccc1)C1CC(c2csc(C3(F)CCN(C(=O)Cn4nc(C(F)F)cc4C(F)F)CC3)n2)=NO1 (stereo not drawn) [I-11]
% eff. (Phytophthora infestans): 95% | Log P [a] [1]: 4.03^[a]

CC(=O)c1ccccc1OCC1CC(c2csc(C3CCN(C(=O)Cn4nc(C(F)F)cc4C(F)F)CC3)n2)=NO1 (stereo not drawn) [I-12]
% eff. (Phytophthora infestans): 100% | Log P [a] [1]: 2.93 | % eff. (Plasmopara viticola): 70%

Cc1ccccc1OCC1CC(c2csc(C3CCN(C(=O)Cn4nc(C(F)F)cc4C(F)F)CC3)n2)=NO1 (stereo not drawn) [I-13]
% eff. (Phytophthora infestans): 100% | Log P [a] [1]: 3.5

CN(CC1CC(c2csc(C3CCN(C(=O)Cn4nc(C(F)F)cc4C(F)F)CC3)n2)=NO1)c1ccccc1 (stereo not drawn) [I-14]
% eff. (Phytophthora infestans): 95% | Log P [a] [1]: 3.47

O=C(Cn1nc(C(F)F)cc1C(F)F)N1CCC(c2nc(C3=NOC(C(F)c4c(F)cccc4F)C3)cs2)CC1 (stereo not drawn) [I-17]
% eff. (Phytophthora infestans): 95% | Log P [a] [1]: 3.36^[a] | % eff. (Plasmopara viticola): 100%

Fc1cccc(F)c1C(F)C1CC(c2csc(C3CCN(C(=S)Cn4nc(C(F)F)cc4C(F)F)CC3)n2)=NO1 (stereo not drawn) [I-18]
% eff. (Phytophthora infestans): 95% | Log P [a] [1]: 3.81^[a] | % eff. (Plasmopara viticola): 100%

Cc1cc(C(F)(F)F)nn1CC(=O)N1CCC(c2nc(C3=NOC(C(F)c4ccccc4)C3)cs2)CC1 (stereo not drawn) [I-19]
% eff. (Phytophthora infestans): 100% | Log P [a] [1]: 3.3^[a] | % eff. (Plasmopara viticola): 94%

Cc1cc(C(F)(F)F)nn1CC(=O)N1CCC(c2nc(C3=NOC(C(F)c4c(F)cccc4F)C3)cs2)CC1 (stereo not drawn) [I-20]
% eff. (Phytophthora infestans): 95% | Log P [a] [1]: 3.48^[a] | % eff. (Plasmopara viticola): 93%

Cc1ccc(C)c(NC(=S)N2CCC(c3nc(C4=NOC(C(F)(F)c5ccccc5)C4)cs3)CC2)c1 (stereo not drawn) [I-21]
% eff. (Phytophthora infestans): 95% | Log P [a] [1]: 3.86^[a] | % eff. (Plasmopara viticola): 85%

O=C(Cn1nc(C(F)F)cc1C(F)F)N1CCC(c2nc(C3=NOC(C(F)(F)c4c(F)cccc4F)C3)cs2)CC1 (stereo not drawn) [I-22]
% eff. (Phytophthora infestans): 95% | Log P [a] [1]: 3.47^[a] | % eff. (Plasmopara viticola): 100%

O=C(Cc1cc(Cl)ccc1Cl)N1CCC(c2nc(C3=NOC(COc4ccccc4)C3)cs2)CC1 (stereo not drawn) [I-23]
% eff. (Phytophthora infestans): 95% | Log P [a] [1]: 3.89 | % eff. (Plasmopara viticola): 89%

O=C(Nc1cc(C(F)F)ccc1C(F)F)N1CCC(c2nc(C3=NOC(C(F)c4ccccc4)C3)cs2)CC1 (stereo not drawn) [I-24]
% eff. (Phytophthora infestans): 100% | Log P [a] [1]: 3.41^[a] | % eff. (Plasmopara viticola): 94%

Cc1cc(C(F)(F)F)nn1CC(=O)N1CCC(c2nc(C3=NOC(C(F)(F)c4ccccc4)C3)cs2)CC1 (stereo not drawn) [I-25]
% eff. (Phytophthora infestans): 100% | Log P [a] [1]: 3.55^[a] | % eff. (Plasmopara viticola): 94%

COc1ccccc1OCC1CC(c2csc(C3CCN(C(=O)Cn4nc(C(F)F)cc4C(F)F)CC3)n2)=NO1 (stereo not drawn) [I-26]
% eff. (Phytophthora infestans): 100% | Log P [a] [1]: 3.01 | % eff. (Plasmopara viticola): 96%

Cc1ccc(C)c(NC(=S)N2CCC(c3nc(C4=NOC(C(F)(F)c5c(F)cccc5F)C4)cs3)CC2)c1 (stereo not drawn) [I-27]
% eff. (Phytophthora infestans): 90% | Log P [a] [1]: 3.81^[a] | % eff. (Plasmopara viticola): 92%

Cc1cc(C(F)(F)F)nn1CC(=O)N1CCC(c2nc(C3=NOC(C(F)(F)c4c(F)cccc4F)C3)cs2)CC1 (stereo not drawn) [I-28]
% eff. (Phytophthora infestans): 100% | Log P [a] [1]: 3.51^[a] | % eff. (Plasmopara viticola): 98%

Cc1ccc(C)c(CC(=O)N2CCC(c3nc(C4=NOC(COc5ccccc5)C4)cs3)CC2)c1 (stereo not drawn) [I-29]
% eff. (Phytophthora infestans): 100% | Log P [a] [1]: 3.71 | % eff. (Plasmopara viticola): 78%

O=C(Nc1cc(C(F)F)ccc1C(F)F)N1CCC(c2nc(C3=NOC(C(F)c4c(F)cccc4F)C3)cs2)CC1 (stereo not drawn) [I-30]
% eff. (Phytophthora infestans): 95% | Log P [a] [1]: 3.60^[a] | % eff. (Plasmopara viticola): 100%

Cc1ccc(C)c(NC(=S)N2CCC(c3nc(C4=NOC(C(F)c5c(F)cccc5F)C4)cs3)CC2)c1 (stereo not drawn) [I-32]
% eff. (Phytophthora infestans): 94% | Log P [a] [1]: 3.80^[a] | % eff. (Plasmopara viticola): 78%

Cc1ccc(Cl)cc1NC(=O)N1CCC(c2nc(C3=NOC(COc4ccccc4)C3)cs2)CC1 (stereo not drawn) [I-33]
% eff. (Phytophthora infestans): 100% | Log P [a] [1]: 3.54

FC(F)c1cc(C(F)F)n(CC(=S)N2CCC(c3nc(C4=NOC(COc5ccccc5)C4)cs3)CC2)n1 (stereo not drawn) [I-34]
% eff. (Phytophthora infestans): 100% | Log P [a] [1]: 3.73 | % eff. (Plasmopara viticola): 96%

O=C(Nc1cc(C(F)F)ccc1C(F)F)N1CCC(c2nc(C3=NOC(C(F)(F)c4c(F)cccc4F)C3)cs2)CC1 (stereo not drawn) [I-35]
% eff. (Phytophthora infestans): 95% | Log P [a] [1]: 3.61^[a] | % eff. (Plasmopara viticola): 100%

COc1ccc(C)cc1NC(=O)N1CCC(c2nc(C3=NOC(COc4ccccc4)C3)cs2)CC1 (stereo not drawn) [I-38]
% eff. (Phytophthora infestans): 100% | Log P [a] [1]: 3.59

Cc1cc(C(F)F)nn1CC(=O)N1CCC(c2nc(C3=NOC(COc4c(F)cccc4F)C3)cs2)CC1 (stereo not drawn) [I-48]
Log P [a] [1]: 3.01 | % eff. (Plasmopara viticola): 96%

O=C(Cn1nc(C(F)F)cc1C(F)F)N1CCC(c2nc(C3=NOC(C(O)(c4ccccc4)C(F)(F)F)C3)cs2)CC1 (stereo not drawn) [I-49]
% eff. (Phytophthora infestans): 97% | Log P [a] [1]: 3.2

CC(C)(c1c(F)cccc1Cl)C1CC(c2csc(C3CCN(C(=O)Nc4cc(C(F)F)ccc4C(F)F)CC3)n2)=NO1 (stereo not drawn) [I-53]
% eff. (Phytophthora infestans): 91% | Log P [a] [1]: 4.53

Cc1ccccc1SCC1CC(c2csc(C3CCN(C(=O)Cn4nc(C(F)F)cc4C(F)F)CC3)n2)=NO1 (stereo not drawn) [I-70]
% eff. (Phytophthora infestans): 95% | Log P [a] [1]: 3.78

O=Cc1ccccc1OCC1CC(c2csc(C3CCN(C(=O)Cn4nc(C(F)F)cc4C(F)F)CC3)n2)=NO1 (stereo not drawn) [I-73]
% eff. (Phytophthora infestans): 90% | Log P [a] [1]: 2.83^[a]; 2.83^[b]

O=C(Cn1nc(C(F)F)cc1C(F)F)N1CCC(c2nc(C3=NOC(COc4c(F)cccc4Br)C3)cs2)CC1 (stereo not drawn) [I-75]
Log P [a] [1]: 3.67 | % eff. (Plasmopara viticola): 98%

From patent US20120122928A1 (priority 2010, published 2012)
